± gives the expanded uncertainty stated by the source. Blank lines part the entries; values can stand above or below the molecule they belong to.
Columns and labels:
[1] = Liquid, Rate of evaporation
[2] = Boiling temperature at pressure P; settings: 1.1 kPa, Liquid

SMILES: Cc1c(O)cc2c(c1C)O[C@](C)(CCC[C@H](C)CCC[C@H](C)CCCC(C)C)CC2 [(R,R,R)-γ-tocopherol]
- Boiling temperature at pressure P ([2]; DSC): 274.70 ± 4.7 °C

SMILES: Cc1cc(O)cc2c1OC(C)(CCCC(C)CCCC(C)CCCC(C)C)CC2 (stereo not drawn) [ω-tocopherol]
- Boiling temperature at pressure P ([2]; DSC): 279.5 ± 6.6 °C

SMILES: Cc1c(C)c2c(c(C)c1O)CC[C@@](C)(CCC[C@H](C)CCC[C@H](C)CCCC(C)C)O2 [(+)-α-tocopherol]
- Boiling temperature at pressure P ([2]; Rate of evaporation): 276.11 ± 8.4 °C

SMILES: Cc1cc(O)c(C)c2c1O[C@](C)(CCC[C@H](C)CCC[C@H](C)CCCC(C)C)CC2 [(R,R,R)-β-tocopherol]
- Boiling temperature at pressure P ([2]; DSC): 279.58 ± 2.9 °C

Results, then the molecule that gave them:

- vapor or sublimation pressure ([1]; 535.66 K): 1 ± 0.1 kPa
- vapor or sublimation pressure ([1]; 538.32 K): 1.1 ± 0.2 kPa
- vapor or sublimation pressure ([1]; 544.06 K): 1.5 ± 0.2 kPa
- vapor or sublimation pressure ([1]; 554.25 K): 2.5 ± 0.2 kPa
- vapor or sublimation pressure ([1]; 558.74 K): 3.1 ± 0.3 kPa
- vapor or sublimation pressure ([1]; 562.37 K): 3.6 ± 0.4 kPa
- vapor or sublimation pressure ([1]; 565.39 K): 4.3 ± 0.5 kPa
SMILES: CCCCCCCCCC(=O)OCC(O)COC(=O)CCCCCCCCC [2-hydroxypropane-1,3-diyl bis(decanoate)]

- vapor or sublimation pressure ([1]; 478.69 K): 1.1 ± 0.2 kPa
- vapor or sublimation pressure ([1]; 482.79 K): 1.5 ± 0.2 kPa
- vapor or sublimation pressure ([1]; 491.77 K): 2.5 ± 0.3 kPa
- vapor or sublimation pressure ([1]; 497.13 K): 3.1 ± 0.6 kPa
- vapor or sublimation pressure ([1]; 498.31 K): 3.6 ± 0.4 kPa
- vapor or sublimation pressure ([1]; 501.31 K): 4.3 ± 0.4 kPa
- vapor or sublimation pressure ([1]; 511.21 K): 6.8 ± 0.7 kPa
- vapor or sublimation pressure ([1]; 519.1 K): 10.1 ± 1 kPa
- vapor or sublimation pressure ([1]; 524.41 K): 13.2 ± 1.2 kPa
SMILES: CCCCCCCCCC(=O)OCC(O)CO (stereo not drawn) [2,3-dihydroxypropyl decanoate]

- vapor or sublimation pressure ([1]; 511.93 K): 1.1 ± 0.2 kPa
- vapor or sublimation pressure ([1]; 517.23 K): 1.5 ± 0.2 kPa
- vapor or sublimation pressure ([1]; 529.42 K): 2.5 ± 0.2 kPa
- vapor or sublimation pressure ([1]; 533.36 K): 3.1 ± 0.3 kPa
- vapor or sublimation pressure ([1]; 538.14 K): 3.6 ± 0.3 kPa
- vapor or sublimation pressure ([1]; 541.18 K): 4.3 ± 0.4 kPa
- vapor or sublimation pressure ([1]; 552.59 K): 6.8 ± 0.5 kPa
- vapor or sublimation pressure ([1]; 560.35 K): 10.1 ± 0.9 kPa
- vapor or sublimation pressure ([1]; 567.73 K): 13.2 ± 1.2 kPa
SMILES: CCCCCCCC(=O)OCC(O)COC(=O)CCCCCCC [glycerol 1,3-dicaprylate]

- vapor or sublimation pressure ([1]; 462.66 K): 1.1 ± 0.1 kPa
- vapor or sublimation pressure ([1]; 468.91 K): 1.5 ± 0.2 kPa
- vapor or sublimation pressure ([1]; 479.02 K): 2.5 ± 0.2 kPa
- vapor or sublimation pressure ([1]; 484.24 K): 3.1 ± 0.4 kPa
- vapor or sublimation pressure ([1]; 485.63 K): 3.6 ± 0.3 kPa
- vapor or sublimation pressure ([1]; 490.19 K): 4.3 ± 0.4 kPa
- vapor or sublimation pressure ([1]; 498.91 K): 6.8 ± 0.6 kPa
- vapor or sublimation pressure ([1]; 507.96 K): 10.1 ± 0.9 kPa
- vapor or sublimation pressure ([1]; 514.64 K): 13.2 ± 1.2 kPa
SMILES: CCCCCCCC(=O)OCC(O)CO (stereo not drawn) [2,3-dihydroxypropyl octanoate]
